The values below come from US7189750B2, “Thiazole-based nitric oxide donors having at least two thiazole moieties and uses thereof” (priority 2004, dated 2007).

What all share (type): cell-based
In test [1] the test system is isolated rat aorta. The test can be described thus: In vitro vasorelaxation of epinephrine-contracted rat aortic rings (CCRC). To be noted: for vasorelaxation effect as compared with glyceryltrinitrate: isolated rat aorta, 1 μM epinephrine. The text has this:
Male Sprague Dawley rats were anaesthetized using intraperitoneal injection of ketamine and xylazine (50 and 10 milligram per kilogram, respectively) and the thoracic aorta, the large upper portion of the descending aorta, starting at the caudal border of the chest bone, was removed thereafter, while carefully removing the paraadventetial tissue surrounding the vessel. Aortae were cut into rings of 4–5 millimeters and mounted onto the tissue path. The path buffer (Krebs-bicrbonate) was constantly gassed with carbogen and maintained at 37° C. The rings were preloaded under 2 g tension and equilibrated for 90 minutes, while refreshing the buffer every 15 minutes. After stabilization, the rings were contracted with epinephrine (1 μM). Cumulative Concentration-Response Curves (CCRC) were measured for the vasorelaxing effect induced by adding various concentrations, ranging from 10^−10 M to 10^−5 M of Pet-2, Pet-3, Pet-7, Pet-8, Pet-12, Pet-24, Pet-43, Pet-59, Pet-147, Pet-152 and Pet-154, and glyceryltrinitrate (GTN), according to the procedure described in Feelich et al., Molecular Pharmacology, 56:243–253 (1999). The vehicle, which was used for this experiment was water:ethanol:propyleneglycol at proportional ratio of 1:1:1.
The vasorelaxing effect of the thiazole-derived NO-donors according to the present invention was measured on slices of thoracic aorta of rats contracted with epinephrine, as described hereinabove.

Test [2] deals with c-GMP in slices of thoracic aorta of rats. As to the kind of experiment: Cyclic-GMP measurement in aortic rat tissue (radioimmunoassay). The following applies: for levels of cGMP as compared with GTN: isolated rat aorta; for cGMP Post-infusion / cGMP Pre-infusion: rat aorta; for cGMP Post-infusion: post-infusion (repeated treatment). As for the experimental part: GTN (10^−6 M) was added to the chamber and, 1 minute after exposure to the drug, rings (usually 3–5) were taken, wrapped with aluminum foil and immediately frozen in liquid nitrogen for storage. Control sample group was treated with the vehicle solution only. At the time of analysis, rings were thawed, blotted over a dry gauzed and weighted. A known weight of tissue was homogenized in 2 ml ice-cold modified Hank's balanced salt solution containing (in gram/liter) NaCl 8; KCl 0.4; glucose 1; KH2PO4 0.06; Na2HPO4 0.047; Phenol red 0.017 and further containing 25 mM EDTA (disodium salt). The homogenate was centrifuged at 4000 g (force units) for 10 minutes at 2–4° C. and the supernatant was thereafter transferred into fresh pre-cooled test tube containing 1 ml of acetonitrile. The tubes were vortex mixed for a few seconds and subsequently centrifuged at 4000 g for 5 minutes at 2–4° C., to remove the precipitated protein. Each supernatant was transferred into a clean test tube and evaporated to dryness under a stream of nitrogen at 55° C. The dry residue was reconstituted with 10 volumes of Tris-EDTA buffer pH 7.5 (0.05 M Tris containing 4 mM EDTA). Aliquots of 100 μl of the reconstituted solution in duplicate were used for c-GMP measurements using Amersham RIA kit, as is described in Haj-Yehia & Benet [Pharmacology, 1995, 273, 1, pp. 94–100]. Standard curves were plotted with six concentrations (0, 0.5, 1, 2, 4 and 8 pmoles of c-GMP per tube).
The NO-tolerance effect of GTN and NO-donor compounds according to the present invention was measured by following the production of c-GMP in slices of thoracic aorta of rats. Thus, the production of c-GMP was measured as described in the methods section above for the reference NO-donor compound GTN, and for the NO-donors of the present invention Pet-2, Pet-3, Pet-7, Pet-8, Pet-10, Pet-12, Pet-24, Pet-59, Pet-147, Pet-149, Pet-152, Pet-154 and Pet-155.

Test [3] relates to isolated rat aorta. The test can be described thus: In vitro induction of tolerance and cross-tolerance: vasorelaxation of pre-exposed rat aortic rings. To be noted: for EC50: Rattus norvegicus; for tolerance induction in vitro: rings pre-treated with epinephrine and then with the same compound (0.44 mM). As for the experimental part: Aortic rings were prepared as described hereinabove, and were exposed to 0.44 mM GTN (vehicle was water:ethanol:propyleneglycol at proportional ratio of 1:1:1) for 1 hour before CCRC construction, to thereby induce tolerance to nitroglycerine. At the end of the tolerance induction period, rings were thrice washed with the path buffer (Krebs-bicrbonate) every 15 minutes for the following hour and then CCRC for vasorelaxation on GTN-induced tolerance rings were constructed for GTN (pretreated versus untreated rings, FIG. 15), in order to verify the ability to induce and measure GTN tolerance induction in vitro
Attempted induction of tolerance to the NO-donating compounds of the present invention was performed under the same conditions as for GTN. Thus, in an exemplary experiment, rings were exposed to 0.44 mM solution of Pet-3 in the attempt to induce tolerance for Pet-3. CCRC were then measured for the vasorelaxing effect of Pet-3 on a group of rings which were pre-exposed to Pet-3 as to induce tolerance to Pet-3, and for an untreated control group. The above protocol was repeated with Pet-2, Pet-7, Pet-8, Pet-12, Pet-24, Pet-43, Pet-149 and Pet-152.
Cross-tolerance studies were conducted using the same technique described above for measuring vasorelaxation of aortic rings from rats. Two groups of aortic rings samples were pre-treated with GTN, then one group was measured for vasorelaxation by GTN and the second group for vasorelaxation by Pet-12, an exemplary NO-donor according to the present invention. For the opposite cross-tolerance studies, two groups of aortic rings samples were pre-treated with Pet-12, then one group was measured for vasorelaxation by GTN and the second group for vasorelaxation by Pet-12.

Setting [4] is: vasorelaxation of rings pre-exposed to 0.44 mM of the same compound for 1 hour, given as negative log value, read-out: EC50 (converted).
Where [5] appears, read: vasorelaxation of rings pre-exposed to 0.44 mM of the same compound for 1 hour, read-out: Concentration.
[6] abbreviates: vasorelaxation, rat aortic rings contracted with 1 μM epinephrine, 10^−10 M to 10^−5 M, read-out: Concentration.
The mark [7] stands for this setting: vasorelaxation, rat aortic rings contracted with 1 μM epinephrine, given as negative log value, read-out: EC50 (converted).
[8] abbreviates: Rattus norvegicus, read-out: Concentration.

Take `C=CCNc1nc(C)c(CCO[N+](=O)[O-])s1` [Pet-155, allyl-[4-methyl-5-(2-nitrooxy-ethyl)-thiazol-2-yl]-amine]: the “vasorelaxation effect as compared with glyceryltrinitrate” value in the test with isolated rat aorta [1] is “superior”. Moreover, in test [2], the “levels of cGMP as compared with GTN” value was “increased”. The EC50 in the test on isolated rat aorta [3] (setting [4]) and in the test on isolated rat aorta [3] (setting [5]) was 50.1 nM in each case.

Consider `Cc1nc(N)sc1CCO[N+](=O)[O-]` [Pet-10, 4-methyl-5-(2-nitrooxy-ethyl)-thiazole-2-ylamine], for which the “levels of cGMP as compared with GTN” value in test [2] is listed as “increased”.

As for `CCNc1nc(C)c(CCO[N+](=O)[O-])s1` [Pet-147, Ethyl-[4-methyl-5-(2-nitrooxy-ethyl)-thiazol-2-yl]-amine], the EC50 in the test on isolated rat aorta [1] (setting [6]) and in the test with isolated rat aorta [1] (setting [7]) was 31.6 nM each time. In addition, the “levels of cGMP as compared with GTN” value in test [2] was “increased”.

`Cc1nc(Nc2nc(C)c(CCO[N+](=O)[O-])s2)sc1CCO[N+](=O)[O-]` [Pet-43, Bis-[4-methyl-5-(2-nitrooxy-ethyl)-thiazol-2-yl]-amine]: the EC50 in the test on isolated rat aorta [1] (Rattus norvegicus) was 158 nM; in the test on isolated rat aorta [1] (setting [8]), 159 nM; with isolated rat aorta [3] (1 h), 251 nM; in the test on isolated rat aorta [3] (1 h, read-out: Concentration) it was 251 nM. Also, the “vasorelaxation effect as compared with glyceryltrinitrate” value in the test on isolated rat aorta [1] is given as “superior”. Besides, the “tolerance induction in vitro” value with isolated rat aorta [3] is reported as “absence of tolerance induction”.

Turning to `Cc1nc(-c2ccccc2)sc1CCO[N+](=O)[O-]` [Pet-8, 4-Methyl-5-(2-nitrooxy-ethyl)-2-phenyl-thiazole], the “vasorelaxation effect as compared with glyceryltrinitrate” value with isolated rat aorta [1] is reported as “superior”. Moreover, the EC50 was 28.2 nM in the test on isolated rat aorta [1] (setting [6]), 20 nM with isolated rat aorta [1] (setting [7]), 25.1 nM in the test on isolated rat aorta [3] (setting [4]) and 25.1 nM with isolated rat aorta [3] (setting [5]). In addition, the “levels of cGMP as compared with GTN” value in test [2] is given as “increased”. In addition, the “cGMP Post-infusion” value in test [2] came to 136 ± 12 pmol/g tissue. In test [2], the “cGMP Pre-infusion” value amounted to 133 ± 10 pmol/g tissue.

Take `Cc1nc(C)c(CCO[N+](=O)[O-])s1` [Pet-3, 2,4-Dimethyl-5-(2-nitrooxy-ethyl)-thiazole]: the EC50 was 35.5 nM in the test on isolated rat aorta [1] (Rattus norvegicus); 35.5 nM with isolated rat aorta [1] (setting [8]); 50.1 nM in the test on isolated rat aorta [3] (1 h); 50.1 nM with isolated rat aorta [3] (1 h, read-out: Concentration). Besides, in the test with isolated rat aorta [1], the “vasorelaxation effect as compared with glyceryltrinitrate” value is listed as “superior”. Further, in test [2], the “levels of cGMP as compared with GTN” value is “increased”. The “cGMP Post-infusion” value in test [2] is given as 118 ± 10 pmol/g tissue. In addition, in test [2], the “cGMP Pre-infusion” value was found to be 122 ± 14 pmol/g tissue. Further, the “tolerance induction in vitro” value with isolated rat aorta [3] is on record as “absence of tolerance induction”.

`Cc1nc(NC(=O)c2cccnc2)sc1CCO[N+](=O)[O-]` [Pet-154, N-[4-methyl-5-(2-nitrooxy-ethyl)-thiazol-2-yl]-nicotinamide]: the EC50 with isolated rat aorta [1] (setting [6]), in the test on isolated rat aorta [1] (setting [7]), in the test on isolated rat aorta [3] (setting [4]) and in the test on isolated rat aorta [3] (setting [5]) was 39.8 nM throughout. For the same compound, the “levels of cGMP as compared with GTN” value in test [2] was “increased”.

Consider `Cc1nc(-c2ccc(C(F)(F)F)cc2)sc1CCO[N+](=O)[O-]` [Pet-59, 4-Methyl-5-(2-nitrooxy-ethyl)-2-(4-trifluoromethyl-phenyl)-thiazole], for which, in the test with isolated rat aorta [1], the “vasorelaxation effect as compared with glyceryltrinitrate” value was “superior”. The EC50 in the test on isolated rat aorta [1] (setting [6]) and in the test with isolated rat aorta [1] (setting [7]) was 79.4 nM throughout. Besides, in test [2], the “levels of cGMP as compared with GTN” value is “increased”.

For the compound `Cc1nc(NC(=O)[C@@H](C)c2ccc(CC(C)C)cc2)sc1CCO[N+](=O)[O-]` (stereo in doubt) [Pet-152, 2-(4-Isobutyl-phenyl)-N-[4-methyl-5-(2-nitrooxy-ethyl)-thiazol-2-yl]-propionamide], the “vasorelaxation effect as compared with glyceryltrinitrate” value with isolated rat aorta [1] is reported as “superior”. For the same compound, the EC50 in the test with isolated rat aorta [1] (setting [6]), in the test with isolated rat aorta [1] (setting [7]), with isolated rat aorta [3] (setting [4]) and with isolated rat aorta [3] (setting [5]) was 50.1 nM each time. The “levels of cGMP as compared with GTN” value in test [2] is “increased”.

With `Cc1nc(N(C)C)sc1CCO[N+](=O)[O-]` [Pet-7, Dimethyl-[4-methyl-5-(2-nitrooxy-ethyl)-thiazol-2-yl]-amine], in the test with isolated rat aorta [1], the “vasorelaxation effect as compared with glyceryltrinitrate” value is 10 fold. Also, the EC50 with isolated rat aorta [1] (setting [6]) was 28.2 nM; with isolated rat aorta [1] (setting [7]) it was 28.2 nM; in the test on isolated rat aorta [3] (setting [4]), 35.5 nM; in the test with isolated rat aorta [3] (setting [5]) it was 50.1 nM. Also, in test [2], the “levels of cGMP as compared with GTN” value was “increased”. The “cGMP Post-infusion” value in test [2] came out at 123 ± 12 pmol/g tissue. Besides, the “cGMP Pre-infusion” value in test [2] was 120 ± 12 pmol/g tissue. For the same compound, the “tolerance induction in vitro” value with isolated rat aorta [3] is on record as “absence of tolerance induction”.

With `Cc1nc(Nc2cccc3ccccc23)sc1CCO[N+](=O)[O-]` [Pet-149, [4-Methyl-5-(2-nitrooxy-ethyl)-thiazol-2-yl]-naphthalen-1-yl-amine], the “vasorelaxation effect as compared with glyceryltrinitrate” value in the test with isolated rat aorta [1] is listed as “superior”. Also, in test [2], the “levels of cGMP as compared with GTN” value is “increased”, the “cGMP Post-infusion” value is reported as 115 ± 14 pmol/g tissue and the “cGMP Pre-infusion” value was found to be 112 ± 12 pmol/g tissue. The EC50 with isolated rat aorta [3] (setting [4]) was 39.8 nM. In addition, the EC50 in the test with isolated rat aorta [3] (setting [5]) was 43.3 nM. Further, in the test with isolated rat aorta [3], the “tolerance induction in vitro” value was “absence of tolerance induction”.

With `CNc1cncc(-c2nc(C)c(CCO[N+](=O)[O-])s2)n1` [Pet-24, Methyl-{6-[4-methyl-5-(2-nitrooxy-ethyl)-thiazol-2-yl]-pyrazin-2-yl}-amine], the EC50 in the test on isolated rat aorta [1] (setting [6]) is 200 nM; in the test with isolated rat aorta [1] (setting [7]), 200 nM; in the test with isolated rat aorta [3] (setting [4]), 251 nM; in the test on isolated rat aorta [3] (setting [5]), 251 nM. Also, in test [2], the “levels of cGMP as compared with GTN” value is on record as “increased”. The “cGMP Post-infusion” value in test [2] is 112 ± 10 pmol/g tissue. In addition, in test [2], the “cGMP Pre-infusion” value was found to be 115 ± 14 pmol/g tissue. For the same compound, the “tolerance induction in vitro” value in the test with isolated rat aorta [3] was “absence of tolerance induction”.
